Consider 26 compounds from patent publication US20010044445A1, “AZOLE INHIBITORS OF CYTOKINE PRODUCTION” (priority 1999, published 2001).

This assay relates to Human peripheral blood mononuclear cells. Briefly: Human Concanavalin-A Proliferation Assay (Con HU Assay). It counts as cell-based. Particulars: concanavalin-A stimulated human PBMC; for inhibition at 1 µM / inhibition at 10 µM / inhibition at 100 µM: 72 h, read-out: % Inhibition of proliferation (at concentrations of 1,10, or 100 μm); for inhibition at 1 µM / inhibition at 10 µM / inhibition at 100 µM / % Inhibition of proliferation (at concentrations of 1,10, or 100 μm): 3 days; for inhibition at 10 µM: concentration 10 μm (in parentheses in the cell); for IC50: tritiated thymidine. On the procedure:
Human peripheral blood mononuclear cells were cultured in RPMI 1640 medium supplemented with 10 μg/ml gentamicin, 50 μM 2-mercaptoethanol, 1X MEM non-essential amino acids (Sigma Chemical Co., St. Louis, Mo.), 100 U/ml sodium penicillin G, 100 μg/ml streptomycin sulfate, 2 mM L-glutamine, 1 mM sodium pyruvate (Life Technologies, Grand Island, N.Y.) and 10% fetal bovine serum (Hyclone, Logan, Utah) at 37° C. with 5% CO2.
The procedure in Current Protocols in Immunology, Volume 1, Published by the Greene Publishing Associates and John Wiley & Sons, Inc, Edited by Richard Coico, 1994, hereby incorporated by reference, was followed. Briefly, 50 ml of blood from human volunteers was collected in heparinized syringes and mixed. Blood was diluted 1:1 in Dulbecco's phosphate buffered saline (D-PBS) (Life Technologies, Grand Island, N.Y.) and mixed. PBS-blood mixture was overlaid into 50 ml centrifuge tubes containing 15 ml Histopaque 1077 (Sigma Chemical Co., St. Louis, Mo.) and centrifuged at 500 X G for 30 minutes at room temperature. Cells at the interface from each Histopaque tube were removed and mixed with 5 ml of D-PBS. Each cell suspension was diluted to 50 ml with D-PBS, mixed and centrifuged at 400 X G for 15 minutes at room temperature. After most of the supernatant was removed, cells were resuspended to 40 ml with D-PBS per tube (2 tubes per donor). Cells were centrifuged at 400 X G for 10 minutes at room temperature. Pellets were resuspended in 10 ml of supplemented RPMI 1640 and cell number determined with a Coulter counter. Cells were diluted to a concentration of 0.5×10^6 cells per mL.
The procedure in Current Protocols in Immunology, Volume 1, Published by the Greene Publishing Associates and John Wiley & Sons, Inc, Edited by Richard Coico, 1994, hereby incorporated by reference, was followed. Briefly, test compounds were added to appropriate wells on 96-well tissue culture plates (Corning Glass Works, Corning, N.Y.) in 20 µl of supplemented RPMI 1640. Human peripheral blood mononuclear cells were added to each well in 100 μl volumes (final cell concentration equal to 50,000 cells per well). After 15 minutes, 100 μl of 5 μg/ml concanavalin-A (Sigma Chemical Co., St. Louis, Mo.) in supplemented RPMI 1640 was added to a final concentration of 2.5 μg/ml. Plates were incubated for 3 days at 37° C. with 5% CO2. On day 3, plates were pulsed with 0.5 μCi/well tritiated thymidine (New England Nuclear, Boston, Mass.). After 6 hours, plates were harvested on a Tomatec 96-well havester (Orange, Conn.). Glass filter mats were counted on a Matrix 9600 direct beta counter (Packard, Meriden, Conn.).

The mark [1] stands for this setting: Homo sapiens, PBMC, concentration 1 μm (in parentheses in the cell).
The mark [2] stands for this setting: Homo sapiens, PBMC, concentration 100 μm (in parentheses in the cell).

Turning to `CN(C(=O)c1ccc([N+](=O)[O-])cc1Cl)c1ccc(-n2nc(C(F)(F)F)cc2C(F)(F)F)cc1` [Example 81, N-[4-[3,5-bis(trifluoromethyl)-1H-pyrazol-1-yl]phenyl]-2-chloro-4-nitro-N-methylbenzamide], the inhibition at 1 µM under setting [1] was 30%. As for `COC(=O)c1cc(NC(=O)c2cc(Br)ccc2Cl)ccc1-n1nc(C(F)(F)F)cc1C(F)(F)F` [Example 274, methyl 2-[3,5-bis(trifluoromethyl)-1H-pyrazol-1-yl]-5-[(5-bromo-2-chlorobenzoyl)amino]benzoate], under “Homo sapiens, PBMC”, the inhibition at 10 µM is 100% and inhibition was half-maximal at 2180 nM (IC50).

As to `Nc1cc(NC(=O)c2ccccc2F)ccc1-n1nc(C(F)(F)F)cc1C(F)(F)F` [Example 298, N-{3-amino-4-[3,5-bis(trifluoromethyl)-1H-pyrazol-1-yl]phenyl}-2-fluorobenzamide], under “Homo sapiens, PBMC”, half-maximal inhibition (IC50) was put at 332 nM. For the compound `O=C(Nc1ccc(-n2nc(C(F)(F)F)cc2C(F)(F)F)cc1)c1sccc1Br` [Example 161, N-[4-[3,5-bis(trifluoromethyl)-1H-pyrazol-1-yl]phenyl]-3-bromo-2-thiophenecarboxamide], the inhibition at 100 µM under setting [2] turned out to be 99%. For the setting “Homo sapiens, PBMC”, this compound gave an IC50 of 231 nM.

As for `CCCC(=O)Nc1ccc(-n2nc(C(F)(F)F)cc2C(F)(F)F)cc1` [Example 175, N-[4-[3,5-Bis(trifluoromethyl)-1H-pyrazol-1-yl]phenyl]butanamide], the inhibition at 100 µM under setting [2] was found to be 100%. This compound came in with an IC50 (Homo sapiens, PBMC) of 562 nM. With `COc1cc(C(F)(F)F)nn1-c1ccc(NC(=O)c2ccncc2)cc1` [Example 312, N-(4-(5-methoxy-3-(trifluoromethyl)-1H-pyrazol-1-yl)phenyl)isonicotinamide], inhibition (Homo sapiens, PBMC) was half-maximal at 298 nM (IC50). For the compound `Fc1ccc(/N=C/c2ccc(-n3nc(C(F)(F)F)cc3C(F)(F)F)cc2)c(F)c1` [Example 97, (E)-N-[4-[3,5-bis(trifluoromethyl)-1H-pyrazol-1-yl]phenylmethylene]-2,4-difluorobenzenamine], the inhibition at 10 µM (Homo sapiens, PBMC) was determined as 20%.

For the setting “Homo sapiens, PBMC”, `O=C(Nc1ccc(-n2nc(-c3ccoc3)cc2OC(F)F)cc1)c1ccncc1F` [Example 359, N-(4-(5-(difluoromethoxy)-3-(3-furyl)-1H-pyrazol-1-yl)phenyl)-3-fluoroisonicotinamide] registered a half-inhibitory concentration (IC50) of 261 nM. Compound `N#Cc1cc(-c2nccs2)nn1-c1ccc(NC(=O)c2ccncc2F)cc1` [Example 341, N-(4-(5-cyano-3-(1,3-thiazol-2-yl)-1H-pyrazol-1-yl)phenyl)-3-fluoroisonicotinamide] had an IC50 of 191 nM. As for `O=C(Nc1ccc(-n2nc(C(F)(F)F)cc2C(F)(F)F)cc1)C1CCCC1` [Example 123, N-[4-[3,5-bis(trifluoromethyl)-1H-pyrazol-1-yl]phenyl]cyclopentanecarboxmide], it took 256 nM to reach half-maximal inhibition (IC50). Further, where the note is “concentration 100 μm (in parentheses in the cell)”, the “% Inhibition of proliferation (at concentrations of 1,10, or 100 μm)” value is given as 99(100) %. Under “Homo sapiens, PBMC”, `Cc1nc(C)c(-c2cc(C(F)(F)F)n(-c3ccc(NC(=O)c4ccncc4F)cc3)n2)s1` [Example 343, N-(4-(3-(2,4-dimethyl-1,3-thiazol-5-yl)-5-(trifluoromethyl)-1H-pyrazol-1-yl)phenyl)-3-fluoroisonicotinamide] had an IC50 of 250 nM.

Regarding `O=C(Nc1ccc(-n2nc(-c3cccnc3)cc2[N+](=O)[O-])cc1)c1ccncc1F` [Example 334, 3-fluoro-N-{4-[5-nitro-3-(3-pyridinyl)-1H-pyrazol-1-yl]phenyl}isonicotinamide], for the setting “Homo sapiens, PBMC”, the IC50 is 297 nM. Regarding `O=C(Nc1ccc(-n2nc(-c3ccncc3)cc2C(F)(F)F)cc1)c1ccncc1F` [Example 318, 3-fluoro-N-(4-(3-(4-pyridinyl)-5-(trifluoromethyl)-1H-pyrazol-1-yl)phenyl)isonicotinamide], the IC50 (Homo sapiens, PBMC) was found to be 258 nM. For `Fc1ccc(NCc2ccc(-n3nc(C(F)(F)F)cc3C(F)(F)F)cc2)c(F)c1` [Example 108, 4-[3,5-bis(trifluoromethyl)-1H-pyrazol-1-yl]-N-(2,4-difluorophenyl)benzenemethanamine], under setting [1], the inhibition at 1 µM is 18%. `N#Cc1cccc(/C=C\c2ccc(-n3nc(C(F)(F)F)cc3C(F)(F)F)cc2)c1` [Example 139, (Z)-3-[2-[4-[3,5-bis(trifluoromethyl)-1H-pyrazol-1-yl]phenyl]ethenyl]benzonitrile]: the inhibition at 10 µM (Homo sapiens, PBMC) was 5%. For the compound `O=C(Nc1ccc(-n2nc(C(F)(F)F)cc2C(F)(F)F)cc1)c1ccc(Br)cc1Cl` [Example 217, N-[4-[3,5-bis(trifluoromethyl)-1H-pyrazol-1-yl]phenyl]-4-bromo-2-chlorobenzamide], under “Homo sapiens, PBMC”, the inhibition at 10 µM came out at 100% and half-maximal inhibition (IC50) was put at 218 nM. Regarding `CN(C(=O)c1ccccc1Cl)c1ccc(-n2nc(C(F)(F)F)cc2C(F)(F)F)cc1` [Example 80, N-[4-[3,5-bis(trifluoromethyl)-1H-pyrazol-1-yl]phenyl]-2-chloro-N-methylbenzamide], the inhibition at 1 µM under setting [1] worked out at 43%. As for `O=C(Nc1ccc(-n2nc(C(F)(F)F)cc2-c2ccco2)cc1)c1ccccc1F` [Example 301, 2-fluoro-N-(4-(5-(2-furyl)-3-(trifluoromethyl)-1H-pyrazol-1-yl)phenyl)benzamide], it took 232 nM to reach half-maximal inhibition (Homo sapiens, PBMC) (IC50). The same measure, in the same setting: the same measure for `Cn1ccc(-c2cc(C(F)(F)F)nn2-c2ccc(NC(=O)c3ccncc3F)cc2)c1` [Example 344, 3-fluoro-N-(4-(5-(1-methyl-1H-pyrrol-3-yl)-3-(trifluoromethyl)-1H-pyrazol-1-yl)phenyl)isonicotinamide]: 251 nM. Still for that read-out and setting: under `O=C(Nc1ccc(-n2nc(C(F)(F)F)cc2OC(F)F)cc1)c1ccncc1` [Example 322, N-(4-(5-(difluoromethoxy)-3-(trifluoromethyl)-1H-pyrazol-1-yl)phenyl)isonicotinamide] stands 238 nM. For the compound `CC1CCCCC1C(=O)Nc1ccc(-n2nc(C(F)(F)F)cc2C(F)(F)F)cc1` (stereo not drawn) [Example 27, N-[4-[3,5-bis(trifluoromethyl)-1H-pyrazol-1-yl]phenyl]-2-methylcyclohexanecarboxamide], where the note is “Homo sapiens, PBMC”, the inhibition at 10 µM is 100% and half-maximal inhibition (IC50) required 299 nM.

In turn, `N#Cc1cc(C(F)(F)F)nn1-c1ccc(NC(=O)c2ccccc2F)cc1` [Example 300, N-{4-[5-cyano-3-(trifluoromethyl)-1H-pyrazol-1-yl]phenyl}-2-fluorobenzamide] yielded an IC50 (Homo sapiens, PBMC) of 79 nM. On the same count and under the same terms, under `O=C(Nc1ccc(-n2nc(C(F)(F)F)cc2Cl)cc1)c1cccnc1F` [Example 325, N-(4-(5-chloro-3-(trifluoromethyl)-1H-pyrazol-1-yl)phenyl)-2-fluoronicotinamide] stands 172 nM. `N#Cc1cc(-c2ccccn2)nn1-c1ccc(NC(=O)c2ccncc2F)cc1` [Example 330, N-(4-(5-cyano-3-(2-pyridinyl)-1H-pyrazol-1-yl)phenyl)-3-fluoroisonicotinamide] yielded an IC50 (Homo sapiens, PBMC) of 169 nM. As for `CNC(=O)c1ccccc1C(=O)Nc1ccc(-n2nc(C(F)(F)F)cc2C(F)(F)F)cc1` [Example 115, N-[4-[3,5-bis(trifluoromethyl)-1H-pyrazol-1-yl]phenyl]-N′-methyl-1,2-benzenedicarboxamide], the inhibition at 100 µM under setting [2] turned out to be 71%. Under “Homo sapiens, PBMC”, this compound had an IC50 of 51300 nM.

As to `CC1(C)C(C(=O)Nc2ccc(-n3nc(C(F)(F)F)cc3C(F)(F)F)cc2)C1(C)C` [Example 2, N-[4-[3,5-bis(trifluoromethyl)-1H-pyrazol-1-yl]phenyl]-2.2.3.3-tetramethylcyclopropanecarboxamide], the “% Inhibition of proliferation (at concentrations of 1,10, or 100 μm)” value (concentration 1 μm (in parentheses in the cell)) was 1(1) %.
